# Biological target: Recombinant human liver glucokinase (Homo sapiens (Human), UniProt P35557)
# Test: Glucokinase activation assay (G6PDH-coupled, Thio-NADH absorbance at 405 nm)
# Assay type: biochemical
# Settings: for EC50: 2.5 mM Glu, 30° C.
# Excerpt: The glucokinase activity can, for instance, be determined without directly measuring glucose-6-phosphate by measuring the amount of Thio-NADH generated during the production of phosphogluconolactone from glucose-6-phosphate by a reporter enzyme glucose-6-phosphate dehydrogenase.
# To test the exemplified compounds, the following assay was employed. Recombinant human liver glucokinase was expressed as a FLAG fusion protein in E. coli, and purified on […] M2 AFFINITY GEL (Sigma). The assay was carried out at 30° C. in a 96-well plate. In the plate was distributed 69 μl each of assay buffer (25 mM Hepes Buffer: pH=7.2, 2 mM MgCl2, 1 mM ATP, 0.5 mM TNAD, 1 mM dithiothreitol), to which was added 1 μl of a DMSO solution of the compound or DMSO as control. Then, 20 μl of pre-ice-cooled enzyme mixture (FLAG-GK, 20 U/ml G6PDH) was distributed thereto, to which was added 10 μl of 25 mM glucose as substrate to initiate the reaction (final glucose concentration=2.5 mM). After starting the reaction, the absorbance at 405 nm was measured every 30 seconds for 10 minutes to evaluate the compound based on the initial increase for 5 minutes. FLAG-GK was added so that the increase of absorbance after 5 minutes fell between 0.05 to 0.1 in the presence of 1% DMSO.
# The OD values of the respective compounds were measured in the respective concentrations, wherein the OD value of DMSO as control is regarded as 100%.
# Recombinant human liver glucokinase, sequence (P35557 other isoform, or with tags, fused parts or gaps): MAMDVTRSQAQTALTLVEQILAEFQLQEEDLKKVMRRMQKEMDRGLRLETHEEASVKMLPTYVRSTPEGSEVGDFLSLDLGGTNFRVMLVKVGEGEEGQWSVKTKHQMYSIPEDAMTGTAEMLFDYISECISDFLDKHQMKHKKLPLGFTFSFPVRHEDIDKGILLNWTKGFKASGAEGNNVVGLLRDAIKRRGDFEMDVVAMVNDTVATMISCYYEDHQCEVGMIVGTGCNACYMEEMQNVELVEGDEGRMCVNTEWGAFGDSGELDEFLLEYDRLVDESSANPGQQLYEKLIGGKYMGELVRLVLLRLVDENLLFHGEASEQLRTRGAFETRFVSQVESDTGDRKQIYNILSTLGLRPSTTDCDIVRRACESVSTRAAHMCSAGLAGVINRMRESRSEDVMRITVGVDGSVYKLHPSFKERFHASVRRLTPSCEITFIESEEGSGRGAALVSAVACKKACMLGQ
SMILES,Emax [%],EC50 [nM]
"Cn1cnnc1Sc1ccc(Sc2ccc(F)cc2)c(C(=O)Nc2ncc(SCC(C)(C)C(=O)O)s2)n1 [Example 21, 3-({2-[({3-[(4-Fluorophenyl)sulfanyl]-6-[(4-methyl-4H-1,2,4-triazol-3-yl)sulfanyl]pyridin-2-yl}carbonyl)amino]-1,3-thiazol-5-yl}sulfanyl)-2,2-dimethylpropanoic acid]",473,17.2
"CCOC(=O)C(C)(C)CSc1cnc(NC(=O)c2nc(Sc3ccccn3)ccc2Sc2ccc(F)cc2)s1 [Example 37, Ethyl 3-({2-[({3-[(4-fluorophenyl)sulfanyl]-6-(pyridin-2-ylsulfanyl)pyridin-2-yl}carbonyl)amino]-1,3-thiazol-5-yl}sulfanyl)-2,2-dimethylpropanoate]",450,129
"Cn1cnnc1Sc1ccc(Sc2ccc(Cl)c(Cl)c2)c(C(=O)Nc2ncc(SCC(=O)O)s2)n1 [Example 52, ({2-[({3-[(3,4-Dichlorophenyl)sulfanyl]-6-[(4-methyl-4H-1,2,4-triazol-3-yl)sulfanyl]pyridin-2-yl}carbonyl)amino]-1,3-thiazol-5-yl}sulfanyl)acetic acid]",431,16.6
"Cn1cnnc1Sc1ccc(Sc2ccc(C(F)(F)F)cc2)c(C(=O)Nc2ncc(SCC(=O)O)s2)n1 [Example 44, [(2-{[(6-[(4-Methyl-4H-1,2,4-triazol-3-yl)sulfanyl]-3-{[4-(trifluoromethyl)phenyl]sulfanyl}pyridin-2-yl)carbonyl]amino}-1,3-thiazol-5-yl)sulfanyl]acetic acid]",349,33.7
"CCOC(=O)CSc1cnc(NC(=O)c2nc(Sc3ccccn3)ccc2Sc2ccc(F)cc2)s1 [Example 35, Ethyl ({2-[({3-[(4-fluorophenyl)sulfanyl]-6-(pyridin-2-ylsulfanyl)pyridin-2-yl}carbonyl)amino]-1,3-thiazol-5-yl}sulfanyl)acetate]",504,83.8
"CCOC(=O)Cc1nc(NC(=O)c2nc(Sc3nncn3C)ccc2Sc2ccc(C(F)(F)F)cc2)sc1Cl [Example 41, Ethyl (5-chloro-2-{[(6-[(4-methyl-4H-1,2,4-triazol-3-yl)sulfanyl]-3-{[4-(trifluoromethyl)phenyl]sulfanyl}pyridin-2-yl)carbonyl]amino}-1,3-thiazol-4-yl)acetate]",296,18.9
"COC(=O)CCc1cnc(NC(=O)c2nc(Sc3nncn3C)ccc2Sc2ccc(OC)cc2)s1 [Example 7, Methyl 3-{2-[({3-[(4-methoxyphenyl)sulfanyl]-6-[(4-methyl-4H-1,2,4-triazol-3-yl)sulfanyl]pyridin-2-yl}carbonyl)amino]-1,3-thiazol-5-yl}propanoate]",550,23.4
"COc1ccc(Sc2ccc(Sc3nncn3C)nc2C(=O)Nc2ncc(CCC(=O)O)s2)cc1 [Example 8, 3-{2-[({3-[(4-Methoxyphenyl)sulfanyl]-6-[(4-methyl-4H-1,2,4-triazol-3-yl)sulfanyl]pyridin-2-yl}carbonyl)amino]-1,3-thiazol-5-yl}propanoic acid]",626,58.7
"Cn1cnnc1Sc1ccc(Sc2ccc(Cl)c(Cl)c2)c(C(=O)Nc2nc(CC(=O)O)c(Cl)s2)n1 [Example 54, {5-Chloro-2-[({3-[(3,4-dichlorophenyl)sulfanyl]-6-[(4-methyl-4H-1,2,4-triazol-3-yl)sulfanyl]pyridin-2-yl}carbonyl)amino]-1,3-thiazol-4-yl}acetic acid]",523,23.3
"CCOP(=O)(Cc1cnc(NC(=O)c2nc(Sc3nncn3C)ccc2Sc2ccc(F)cc2)s1)OCC [Example 26, Diethyl ({2-[({3-[(4-fluorophenyl)sulfanyl]-6-[(4-methyl-4H-1,2,4-triazol-3-yl)sulfanyl]pyridin-2-yl}carbonyl)amino]-1,3-thiazol-5-yl}methyl)phosphonate]",377,136
"COc1ccc(Sc2ccc(Sc3nncn3C)nc2C(=O)Nc2ccc(CC(N)=O)cc2)cc1 [Example 9, N-[4-(2-Amino-2-oxoethyl)phenyl]-3-[(4-methoxyphenyl)sulfanyl]-6-[(4-methyl-4H-1,2,4-triazol-3-yl)sulfanyl]pyridine-2-carboxamide]",191,1890
"CCOC(=O)Cc1csc(NC(=O)c2nc(Sc3ccccn3)ccc2Sc2ccc(OC)cc2)n1 [Example 16, Ethyl {2-[({3-[(4-methoxyphenyl)sulfanyl]-6-(pyridin-2-ylsulfanyl)pyridin-2-yl}carbonyl)amino]-1,3-thiazol-4-yl}acetate]",524,275
"COc1ccc(Sc2ccc(Sc3ccccn3)nc2C(=O)Nc2ncc(CCC(=O)O)s2)cc1 [Example 15, 3-{2-[({3-[(4-Methoxyphenyl)sulfanyl]-6-(pyridin-2-ylsulfanyl)pyridin-2-yl}carbonyl)amino]-1,3-thiazol-5-yl}propanoic acid]",645,140
"COC(=O)CCc1cnc(NC(=O)c2nc(Sc3ccccn3)ccc2Sc2ccc(F)cc2)s1 [Example 39, Methyl 3-{2-[({3-[(4-fluorophenyl)sulfanyl]-6-(pyridin-2-ylsulfanyl)pyridin-2-yl}carbonyl)amino]-1,3-thiazol-5-yl}propanoate]",468,726
CCOC(=O)CSc1cnc(NC(=O)c2nc(Sc3ccc(F)cc3)ccc2Sc2ccc(F)cc2)s1 [Example 27],182,–
"CCOC(=O)Cc1nc(NC(=O)c2nc(Sc3nncn3C)ccc2Sc2ccc(F)cc2)sc1Cl [Example 24, Ethyl {5-chloro-2-[({3-[(4-fluorophenyl)sulfanyl]-6-[(4-methyl-4H-1,2,4-triazol-3-yl)sulfanyl]pyridin-2-yl}carbonyl)amino]-1,3-thiazol-4-yl}acetate]",378,8
"Cn1cnnc1Sc1ccc(Sc2ccc(F)cc2)c(C(=O)Nc2nc(CC(=O)O)c(Cl)s2)n1 [Example 25, {5-Chloro-2-[({3-[(4-fluorophenyl)sulfanyl]-6-[(4-methyl-4H-1,2,4-triazol-3-yl)sulfanyl]pyridin-2-yl}carbonyl)amino]-1,3-thiazol-4-yl}acetic acid]",525,18.6
"COc1ccc(Sc2ccc(Sc3ccccn3)nc2C(=O)Nc2nc(CC(=O)O)cs2)cc1 [Example 17, {2-[({3-[(4-Methoxyphenyl)sulfanyl]-6-(pyridin-2-ylsulfanyl)pyridin-2-yl}carbonyl)amino]-1,3-thiazol-4-yl}acetic acid]",698,106
"CCOC(=O)C(C)(C)CSc1cnc(NC(=O)c2nc(Sc3nncn3C)ccc2Sc2ccc(OC)cc2)s1 [Example 5, Ethyl 3-({2-[({3-[(4-methoxyphenyl)sulfanyl]-6-[(4-methyl-4H-1,2,4-triazol-3-yl)sulfanyl]pyridin-2-yl}carbonyl)amino]-1,3-thiazol-5-yl}sulfanyl)-2,2-dimethylpropanoate]",490,14.3
"COc1ccc(Sc2ccc(Sc3ccccn3)nc2C(=O)Nc2nc(CC(=O)O)c(Cl)s2)cc1 [Example 13, {5-Chloro-2-[({3-[(4-methoxyphenyl)sulfanyl]-6-(pyridin-2-ylsulfanyl)pyridin-2-yl}carbonyl)amino]-1,3-thiazol-4-yl}acetic acid]",584,9
"O=C(O)CSc1cnc(NC(=O)c2nc(Sc3ccc(F)cc3)ccc2Sc2ccc(F)cc2)s1 [Example 28, ({2-[({3,6-Bis[(4-fluorophenyl)sulfanyl]pyridin-2-yl}carbonyl)amino]-1,3-thiazol-5-yl}sulfanyl)acetic acid]",343,172
"CCOC(=O)Cc1nc(NC(=O)c2nc(Sc3ccc(F)cc3)ccc2Sc2ccc(F)cc2)sc1Cl [Example 29, Ethyl {2-[({3,6-bis[(4-fluorophenyl)sulfanyl]pyridin-2-yl}carbonyl)amino]-5-chloro-1,3-thiazol-4-yl}acetate]",158,–
"CCOC(=O)Cc1csc(NC(=O)c2nc(Sc3nncn3C)ccc2Sc2ccc(C(F)(F)F)cc2)n1 [Example 46, Ethyl (2-{[(6-[(4-methyl-4H-1,2,4-triazol-3-yl)sulfanyl]-3-{[4-(trifluoromethyl)phenyl]sulfanyl}pyridin-2-yl)carbonyl]amino}-1,3-thiazol-4-yl)acetate]",466,66.3
"Cn1cnnc1Sc1ccc(Sc2ccc(F)cc2)c(C(=O)Nc2ncc(SCC(=O)O)s2)n1 [Example 19, ({2-[({3-[(4-Fluorophenyl)sulfanyl]-6-[(4-methyl-4H-1,2,4-triazol-3-yl)sulfanyl]pyridin-2-yl}carbonyl)amino]-1,3-thiazol-5-yl}sulfanyl)acetic acid]",426,23.1
"COc1ccc(Sc2ccc(Sc3nncn3C)nc2C(=O)Nc2ncc(SCC(C)(C)C(=O)O)s2)cc1 [Example 6, 3-({2-[({3-[(4-methoxyphenyl)sulfanyl]-6-[(4-methyl-4H-1,2,4-triazol-3-yl)sulfanyl]pyridin-2-yl}carbonyl)amino]-1,3-thiazol-5-yl}sulfanyl)-2,2-dimethylpropanoic acid]",425,16
CCOC(=O)C(C)(C)CSc1cnc(NC(=O)c2nc(Sc3nncn3C)ccc2Sc2ccc(F)cc2)s1 [Example 20],460,–
